Laboratory results taken from patent US12083101B2, “Biaryl derivatives as YAP/TAZ-TEAD protein-protein interaction inhibitors” (Novartis AG, priority 2020, dated 2024).
pIC50: −log10 of the molar value.

Experiments:
[1] = tested on: MKN-45/Ubc-luc cells; test: Reporter gene specificity control (Ubc-luciferase), MKN-45; conditions: Homo sapiens, MKN-45, 24 h, read-out: Reporter gene assay MKN-45 IC50 [μM], MKN-45/Ubc-luc cells (YAP deleted, specificity control), 24 hours incubation
Protocol: As a specificity control, MKN-45 cells were stably transduced with a Ubc-Luc reporter construct, in which constitutive expression of firefly luciferase is driven by the promoter of the ubiquitin C housekeeping gene.
Stock solutions of compounds were prepared at a concentration of 10 mM in DMSO and stored at 4° C. Where necessary to afford a full dose-response curve, the stock solutions were pre-diluted in DMSO to 1'000-fold the desired reduced start concentration. On the day after cell seeding, eleven 2-fold serial dilutions of each compound were dispensed directly into the cell assay plates using a HP 300D non-contact Digital Dispenser (TECAN, Mannedorf, Switzerland). The final concentration of DMSO was normalized to 0.1% in all wells.
The ability of compounds to inhibit YAP-dependent transcription was assessed in NCI-H2052 Tet-On shYAP_2371 pLenti6 MCAT_Luc cells, while specificity (lack of unspecific inhibition of luciferase expression of activity) was assessed in MKN-45/Ubc-luc cells. […] Following incubation for 24 hours at 37° C., compound-mediated modulation of reporter-gene activity was quantified 5 min after addition of 20 μl BrightGlo (Promega, Cat #E2620), by measuring luminescence intensity on a multi-mode plate-reader (TECAN, Männedorf, Switzerland, Integration time 100 ms). For data analysis, the assay background value determined in wells containing medium, but no cells, was subtracted from all data points. Dose-dependent compound effects were expressed as % of vehicle-treated control (luminescence signal produced by cells receiving DMSO only) and IC50s calculated using a four-parametric fit model.

[2] = tested on: MKN-45/Ubc-luc cells; test: Proliferation assay (resazurin), MKN-45; assay type: cell-based; conditions: Homo sapiens, 72 hours incubation
[3] = tested on: NCI-H2052 Tet-On shYAP_2371 pLenti6 MCAT_Luc cells (YAP-dependent transcription); test: YAP reporter gene activity assay (MCAT-luciferase), NCI-H2052; assay type: cell-based; conditions: Homo sapiens, NCI-H2052, 24 h, 24 hours incubation, BrightGlo luminescence
Outline: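 NCI-H2052 cells carrying an MCAT-luciferase reporter and a tetracycline-inducible YAP 3′UTR shRNA were treated with eleven 2-fold compound dilutions (0.1% DMSO) for 24 h at 37 °C. BrightGlo luminescence was background-subtracted and expressed as % of DMSO control. IC50 came from a four-parameter fit; MKN-45/Ubc-luc cells served as the specificity counterscreen.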

[4] = molecular target: Avi-humanTEAD4 217-434 / Cy5 labeled humanYAP 60-100 (Homo sapiens (Human), UniProt Q15561); test: TR-FRET YAP-TEAD4 in-vitro biochemical assay; assay type: binding; conditions: 1 nM Avi-humanTEAD4 217-434, 20 nM Cy5-humanYAP 60-100, 1 h room temperature
Chain of Avi-humanTEAD4 217-434 / Cy5 labeled humanYAP 60-100 (Q15561 217-434): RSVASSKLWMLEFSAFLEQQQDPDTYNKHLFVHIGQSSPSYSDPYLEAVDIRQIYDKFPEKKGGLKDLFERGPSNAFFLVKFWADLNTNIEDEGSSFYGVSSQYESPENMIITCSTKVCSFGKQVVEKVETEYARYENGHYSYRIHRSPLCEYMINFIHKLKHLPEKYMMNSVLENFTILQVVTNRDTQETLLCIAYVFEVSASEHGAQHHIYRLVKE

[5] = tested on: NCI-H2052 Tet-On shYAP_2371 pLenti6 MCAT_Luc cells; test: Proliferation assay (resazurin), NCI-H2052; assay type: cell-based; conditions: Homo sapiens, NCI-H2052, 72 h, 72 hours incubation
Outline: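 The NCI-H2052 line carries a Tet-inducible shRNA against the YAP1 3′UTR and an MCAT luciferase reporter. The day after seeding, it received eleven 2-fold compound dilutions at 0.1% DMSO, and viability was read by resazurin fluorescence.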

| IC50 [1] [µM] | GI50 [2] [nM] | pIC50 [3] | pIC50 [4] | GI50 [5] [nM] | Structure (SMILES) |
| --- | --- | --- | --- | --- | --- |
| > 10 | > 10000 | 7.82 | > 9.00 | 14 | C[C@H]1c2c(cc(F)c(Cl)c2-c2c(C(N)=O)ccc(OCCO)c2F)O[C@]1(CN[C@H]1CC[C@](C)(O)CC1)c1ccccc1 (atropisomer, axis not shown) [Example 117a, 2-((2S,3S,4S)-5-chloro-6-fluoro-2-((((trans)-4-hydroxy-4-methylcyclohexyl)amino)methyl)-3-methyl-2-phenyl-2,3-dihydrobenzofuran-4-yl)-3-fluoro-4-(2-hydroxyethoxy)benzamide] |
| > 10 | > 10000 | 7.80 | 9.00 | 30 | C[C@H]1c2c(cc(F)c(Cl)c2-c2c(C(N)=O)ccc(OCCO)c2F)O[C@]1(CN[C@H]1CC[C@@](C)(O)CC1)c1ccccc1 (atropisomer, axis not shown) [Example 117b, 2-((2S,3S,4S)-5-chloro-6-fluoro-2-((((cis)-4-hydroxy-4-methylcyclohexyl)amino)methyl)-3-methyl-2-phenyl-2,3-dihydrobenzofuran-4-yl)-3-fluoro-4-(2-hydroxyethoxy)benzamide] |
| > 5.5 | > 5500 | 8.00 | 9.00 | 15 | C[C@H]1c2c(cc(F)c(Cl)c2-c2c(C(N)=O)ccc(OCCO)c2F)O[C@]1(CNC1CCC1)c1ccccc1 (atropisomer, axis not shown) [Example 118, 2-((2S,3S,4S)-5-chloro-2-((cyclobutylamino)methyl)-6-fluoro-3-methyl-2-phenyl-2,3-dihydrobenzofuran-4-yl)-3-fluoro-4-(2-hydroxyethoxy)benzamide] |
| > 10 | > 10000 | 7.66 | 8.70 | 28 | C[C@H]1c2c(cc(F)c(Cl)c2-c2c(C(N)=O)cnc(OCCO)c2F)O[C@]1(CN[C@H]1CC[C@](C)(O)CC1)c1ccccc1 (atropisomer, axis not shown) [Example 119] |
| > 10 | > 10000 | 7.70 | 8.52 | 22 | C[C@H](O)COc1ccc(C#N)c(-c2c(Cl)c(F)cc3c2[C@H](C)[C@@](CN[C@H]2CC[C@](C)(O)CC2)(c2ccccc2)O3)c1F (atropisomer, axis not shown) [Example 120, 2-((2S,3S,4S)-5-Chloro-6-fluoro-2-((((trans)-4-hydroxy-4-methylcyclohexyl)amino)methyl)-3-methyl-2-phenyl-2,3-dihydrobenzofuran-4-yl)-3-fluoro-4-((S)-2-hydroxypropoxy)benzonitrile] |
| > 10 | > 10000 | 7.70 | 8.70 | 36 | CNC(=O)c1ccc(OCCO)c(F)c1-c1c(Cl)c(F)cc2c1[C@H](C)[C@@](CN[C@H]1CC[C@](C)(O)CC1)(c1ccccc1)O2 (atropisomer, axis not shown) [Example 121, 2-((2S,3S,4S)-5-Chloro-6-fluoro-2-((((trans)-4-hydroxy-4-methylcyclohexyl)amino)methyl)-3-methyl-2-phenyl-2,3-dihydrobenzofuran-4-yl)-3-fluoro-4-(2-hydroxyethoxy)-N-methylbenzamide] |
| > 10 | > 10000 | 7.07 | 8.22 | 59 | CNC[C@]1(c2ccccc2)Oc2cc(F)c(Cl)c(-c3c(C(=O)NC)ccc(OC[C@H](C)O)c3F)c2[C@@H]1C (atropisomer, axis not shown) [Example 122, 2-((2S,3S,4S)-5-Chloro-6-fluoro-3-methyl-2-((methylamino)methyl)-2-phenyl-2,3-dihydrobenzofuran-4-yl)-3-fluoro-4-((S)-2-hydroxypropoxy)-N-methylbenzamide] |
| > 10 | > 10000 | 7.60 | 8.70 | 44 | C[C@H](O)COc1ccc(C(N)=O)c(-c2c(Cl)c(F)cc3c2[C@H](C)[C@@](CN)(c2ccccc2)O3)c1F (atropisomer, axis not shown) [Example 123, 2-((2S,3S,4S)-2-(Aminomethyl)-5-chloro-6-fluoro-3-methyl-2-phenyl-2,3-dihydrobenzofuran-4-yl)-3-fluoro-4-((S)-2-hydroxypropoxy)benzamide] |
| > 10 | > 10000 | 5.91 | 7.96 | 1070 | C[C@H]1c2c(cc(F)c(Cl)c2-c2c(OCCO)ccc(F)c2F)O[C@]1(CN)c1ccccc1 (atropisomer, axis not shown) [Example 124, 2-(2-((2S,3S,4S)-2-(Aminomethyl)-5-chloro-6-fluoro-3-methyl-2-phenyl-2,3-dihydrobenzofuran-4-yl)-3,4-difluorophenoxy)ethan-1-ol] |
| > 10 | > 7500 | 6.17 | 7.96 | 1180 | CNC[C@]1(c2cccc(O)n2)Oc2cc(F)c(Cl)c(-c3c(C(N)=O)ccc(OC)c3F)c2[C@@H]1C (atropisomer, axis not shown) [Example 125, 2-((2R,3S,4S)-5-Chloro-6-fluoro-2-(6-hydroxypyridin-2-yl)-3-methyl-2-((methylamino)methyl)-2,3-dihydrobenzofuran-4-yl)-3-fluoro-4-methoxybenzamide] |
| > 10 | > 10000 | 7.35 | 8.70 | 76 | COCCOc1ccc(C(N)=O)c(-c2c(Cl)c(F)cc3c2[C@H](C)[C@@](CN[C@H]2CC[C@](C)(O)CC2)(c2ccccn2)O3)c1F (atropisomer, axis not shown) [Example 126, 2-((2R,3S,4S)-5-Chloro-6-fluoro-2-((((trans)-4-hydroxy-4-methylcyclohexyl)amino)methyl)-3-methyl-2-(pyridin-2-yl)-2,3-dihydrobenzofuran-4-yl)-3-fluoro-4-(2-methoxyethoxy)benzamide] |
| > 10 | > 10000 | 7.19 | 8.22 | 141 | COc1ccc(C(N)=O)c(-c2c(Cl)c(F)cc3c2[C@H](C)[C@@](CN[C@H]2CC[C@](C)(O)CC2)(c2cccnc2)O3)c1F (atropisomer, axis not shown) [Example 127, 2-((2S,3S,4S)-5-Chloro-6-fluoro-2-((((trans)-4-hydroxy-4-methylcyclohexyl)amino)methyl)-3-methyl-2-(pyridin-3-yl)-2,3-dihydrobenzofuran-4-yl)-3-fluoro-4-methoxybenzamide] |
| > 10 | > 10000 | 5.24 | 6.75 | 7050 | COc1ccc(C(N)=O)c(-c2c(C(F)(F)F)ccc3c2C[C@@](CN)(c2ccccc2)O3)c1 (atropisomer, axis not shown) [Example 128, 2-((2S,4R)-2-(Aminomethyl)-2-phenyl-5-(trifluoromethyl)-2,3-dihydrobenzofuran-4-yl)-4-methoxybenzamide] |
| > 10 | > 10000 | 6.21 | 7.60 | 892 | CNC(=O)c1ccc(OC)c(F)c1-c1c(C#N)ccc2c1C[C@@](CN[C@H]1CC[C@](C)(O)CC1)(c1ccccc1)O2 (atropisomer, axis not shown) [Example 129, 2-((2S,4R)-5-Cyano-2-((((trans)-4-hydroxy-4-methylcyclohexyl)amino)methyl)-2-phenyl-2,3-dihydrobenzofuran-4-yl)-3-fluoro-4-methoxy-N-methylbenzamide] |
| > 10 | > 10000 | 5.64 | 7.13 | 1570 | NC[C@@]1(c2ccccc2)Cc2c(cc(F)c(Cl)c2-c2c(F)cccc2C(N)=O)N1 (atropisomer, axis not shown) [Example 134, 2-((2S,4S)-2-(aminomethyl)-5-chloro-6-fluoro-2-phenylindolin-4-yl)-3-fluorobenzamide] |
| > 10 | 8640 | 6.61 | 8.15 | 627 | NC(=O)c1ccc(OC(F)F)c(F)c1-c1c(Cl)ccc2c1C[C@@](CNC1CCCCC1)(c1ccccc1)O2 (atropisomer, axis not shown) [Example 135, 2-((2S,4S)-5-Chloro-2-((cyclohexylamino)methyl)-2-phenyl-2,3-dihydrobenzofuran-4-yl)-4-(difluoromethoxy)-3-fluorobenzamide] |
| > 8 | > 8000 | 8.00 | 8.70 | 10 | CNC[C@]1(c2ccccc2)Oc2cc(F)c(Cl)c(-c3c(C(N)=O)ccc(OC)c3F)c2[C@@H]1C (atropisomer, axis not shown) [Example 144, 2-((2S,3S,4S)-5-Chloro-6-fluoro-3-methyl-2-((methylamino)methyl)-2-phenyl-2,3-dihydrobenzofuran-4-yl)-3-fluoro-4-methoxybenzamide] |
